# Source: US12297482B2, “Rapid cell culture test device designed such that fluid films with uniform thickness are formed” (priority 2020, dated 2025)
# Assays:
# Enterobacter cloacae [1] = assay: Susceptibility testing of blood-sample strain by broth microdilution (BMD); assay type: cell-based; parameters: key: susceptible (S); intermediate resistance (I); resistance (R); details: BMD testing method, strain from blood sample
# Method: The tests were conducted on various drugs that are currently used in testing organizations. […] Accordingly, these test results are all classified as minor errors of the first step judgement.
# Enterobacter cloacae [2] = assay: Susceptibility testing of blood-sample strain using the cell culture test device (DRAST); assay type: cell-based; parameters: key: susceptible (S); intermediate resistance (I); resistance (R); details: strain from blood sample
# From the text: (§1) The liquid medium usually […].
# S. aureus ATCC 29213 = assay: Antibiotic susceptibility testing using the cell culture test device (DRAST), time-lapse colony observation; details: reference strain, observed until 6 h
# Enterococcus faecium [3] = assay: Susceptibility testing of blood-sample strain by broth microdilution (BMD); assay type: cell-based; parameters: key: susceptible (S); intermediate resistance (I); resistance (R); details: BMD testing method, strain from blood sample
# Method: The tests were conducted on various drugs that are currently used in testing organizations. […] Staphylococcus aureus, Staphylococcus epidermidis, Enterococcus faecalis, and Enterococcus faecium were detected in four blood samples. The test results on S. aureus and S. epidermidis in the BMD testing method were in good agreement with those in the testing method using the cell culture test device (DRAST) of the present disclosure.
# Accordingly, these test results are all classified as minor errors of the first step judgement. […] The concentrations shown in FIG. 16 are expressed in μg/mL.
# Enterococcus faecium [4] = assay: Susceptibility testing of blood-sample strain using the cell culture test device (DRAST); assay type: cell-based; parameters: key: susceptible (S); intermediate resistance (I); resistance (R); details: strain from blood sample
# From the text: as §1
# For example, the biological agent may be a culture of blood collected from a human infected with bacteria, i.e. a culture of blood positive for bacterial infection. In this case, a liquid medium stimulating the division of only the bacterial cells can be used to distinguish the bacterial cells from the blood cells based on their different sizes. The biological agent positive for bacterial infection may be collected and diluted with the gelling agent-containing liquid medium. Thus, there is no need to separate the bacteria from the blood sample, shortening the test time.
# P. aeruginosa ATCC 27853 = assay: Antibiotic susceptibility testing using the cell culture test device (DRAST), time-lapse colony observation; details: reference strain, observed until 6 h
# E. faecalis ATCC 29212 = assay: as above; details: reference strain, observed until 6 h
molecule,measurement,setting,value
C[C@@H](O)[C@H]1C(=O)N2C(C(=O)O)=C(S[C@@H]3CN[C@H](C(=O)Nc4cccc(C(=O)O)c4)C3)[C@H](C)[C@H]12 [ertapenem],susceptibility category (S/I/R) of E. cloacae,Enterobacter cloacae [1],R
same,susceptibility category (S/I/R) of E. cloacae,Enterobacter cloacae [2],I
penicillin,MIC of the antibiotic against S. aureus ATCC 29213,S. aureus ATCC 29213,1.0 µg/mL
CC(=O)NC[C@H]1CN(c2ccc(N3CCOCC3)c(F)c2)C(=O)O1 [linezolid],susceptibility category (S/I/R) of E. faecium,Enterococcus faecium [3],R
same,susceptibility category (S/I/R) of E. faecium,Enterococcus faecium [4],I
C[C@H]1[C@H](NC(=O)/C(=N\OC(C)(C)C(=O)O)c2csc(N)n2)C(=O)N1S(=O)(=O)O [aztreonam],MIC of the antibiotic against P. aeruginosa ATCC 27853,P. aeruginosa ATCC 27853,8.0 µg/mL
gentamicin,MIC of the antibiotic against E. faecalis ATCC 29212,E. faecalis ATCC 29212,8.0 µg/mL
